Source: US20150352116A1, “HDAC INHIBITOR AND BTK INHIBITOR COMBINATIONS” (Pharmacyclics LLC, priority 2014, published 2015)

Key:
Type in all cases: cell-based
CLL cells [1] = test: sensitivity of CLL cells from extended-lymphocytosis or ibrutinib-resistant samples (FIG. 7); settings: samples with extended lymphocytosis or that develop resistance to Ibrutinib
Method: (§1) FIG. 1A illustrates a nanostring miRNA expression data table. […] FIG. 1B illustrates HDAC1 knockdown in CLL cells. FIG. 2A illustrates a human BTK mRNA map. […] FIG. 2C illustrates a miRNA map. HDAC inhibition is associated with the accumulation of activating chromatin modifications (H3K4me3) that promote gene re-expression. FIG. 3A illustrates a miRNA expression data table. FIG. 3B illustrates miRNA expression in the presence or absence of 0.4 μM Abexinostat in unmutated 17p CLL. […] FIG. 5 illustrates an annexin apoptosis assay on CLL cells. […] FIG. 6 illustrates survival after leukemia in a TCL-1 mouse model. […] FIG. 9 illustrates an annexin apoptosis assay on CLL cells. […] FIG. 10 illustrates the expression of phosphorylated BTK Y223 in the presence of Abexinostat in AML cells.

CLL cells [2] = test: annexin apoptosis assay on CLL cells
Source text: FIG. 5 illustrates an annexin apoptosis assay on CLL cells.
FIG. 9 illustrates an annexin apoptosis assay on CLL cells.
as §1

Btk-directed miRNA = test: miRNA expression in unmutated 17p CLL; settings: 0.4 μM Abexinostat, unmutated 17p (high risk) CLL, FIG. 3B
Method: FIG. 3A illustrates a miRNA expression data table. FIG. 3B illustrates miRNA expression in the presence or absence of 0.4 μM Abexinostat in unmutated 17p CLL.
as §1

CN(C)Cc1c(C(=O)NCCOc2ccc(C(=O)NO)cc2)oc2ccccc12 [Abexinostat, 3-[(Dimethylamino)methyl]-N-{2-[4-(hydroxycarbamoyl)phenoxy]ethyl}-1-benzofuran-2-carboxamide]
sensitivity of CLL cells to Abexinostat (CLL cells [1]): retaining sensitivity
killing of CLL cells (annexin apoptosis), combination effect (CLL cells [2]; Abexinostat in combination with ibrutinib, FIG. 5): synergized with ibrutinib to kill CLL cells
sensitivity of CLL cells to Abexinostat (annexin apoptosis) (CLL cells [2]; samples with extended lymphocytosis or that develop resistance to Ibrutinib, FIG. 9): retain sensitivity
effect on miRNA expression (Btk-directed miRNA): de-repression of Btk-directed miRNA
